Assay results from patent publication US11331299B2, “Medicinal use of serrulatane diterpenes” (The University of Sydney, priority 2016, dated 2022).

Assays:
CBX1 (h) chromodomain = target: T1, CBX1 (h) chromodomain (Homo sapiens, UniProt P83916); assay: Epigenetic binding assay, Chromodomain; conditions: read-out: % Inhibition of Control Specific Binding
T1 construct: Recognition and specificity determinants of the human cbx chromodomains; Eurofins CEREP (France), contract laboratory

UHRF1 (108-286) (h) = target: T2, UHRF1 (108-286) (h) (Homo sapiens, UniProt Q96T88); assay: Epigenetic binding assay, PHD domain; conditions: for inhibition at 10 µM: read-out: % Inhibition of Control Specific Binding
T2 construct: Eurofins CEREP (France), contract laboratory
T2 sequence (Q96T88 108-286): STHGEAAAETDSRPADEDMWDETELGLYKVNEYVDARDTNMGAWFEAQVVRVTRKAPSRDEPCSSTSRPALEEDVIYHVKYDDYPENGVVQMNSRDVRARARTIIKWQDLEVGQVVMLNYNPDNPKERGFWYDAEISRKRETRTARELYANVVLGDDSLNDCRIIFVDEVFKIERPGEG

HDAC11 (h) = target: T3, HDAC11 (h) (Homo sapiens, UniProt Q96DB2); assay: Epigenetic enzyme assay, Histone deacetylase (HDACs); type: biochemical; conditions: read-out: % Inhibition of Control Values
T3 sequence (Q96DB2 1-347): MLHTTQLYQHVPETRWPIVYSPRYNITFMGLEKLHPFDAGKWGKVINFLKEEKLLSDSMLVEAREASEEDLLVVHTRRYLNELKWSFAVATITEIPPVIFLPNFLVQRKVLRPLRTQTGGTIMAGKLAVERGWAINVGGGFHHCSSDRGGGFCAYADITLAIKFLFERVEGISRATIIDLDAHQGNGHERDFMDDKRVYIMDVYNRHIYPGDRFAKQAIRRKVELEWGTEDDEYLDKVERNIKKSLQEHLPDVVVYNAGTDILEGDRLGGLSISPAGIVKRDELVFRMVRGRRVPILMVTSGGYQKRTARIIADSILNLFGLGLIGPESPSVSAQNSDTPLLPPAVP

Sirtuin 7 (h) = target: T4, Sirtuin 7 (h) (Homo sapiens, UniProt Q9NRC8); assay: Epigenetic enzyme assay, Sirtuins; type: biochemical; conditions: 10 μM; read-out: % Inhibition of Control Values
T4 sequence (Q9NRC8 1-400): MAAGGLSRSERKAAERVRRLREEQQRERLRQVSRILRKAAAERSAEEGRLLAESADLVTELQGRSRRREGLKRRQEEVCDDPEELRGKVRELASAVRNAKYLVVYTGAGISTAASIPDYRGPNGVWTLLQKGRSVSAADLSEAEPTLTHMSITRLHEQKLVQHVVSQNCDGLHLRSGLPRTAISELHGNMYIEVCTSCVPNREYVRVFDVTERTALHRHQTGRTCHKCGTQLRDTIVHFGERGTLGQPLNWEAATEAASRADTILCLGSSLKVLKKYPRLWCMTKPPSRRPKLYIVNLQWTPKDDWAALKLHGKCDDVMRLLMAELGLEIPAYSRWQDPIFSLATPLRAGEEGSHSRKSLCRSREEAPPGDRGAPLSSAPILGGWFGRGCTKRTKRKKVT

MLL complex (h) = MLL complex (h) (Homo sapiens, UniProt Q03164); assay: Epigenetic enzyme assay, Methyltransferases (MTs); type: biochemical; conditions: for inhibition at 10 µM: read-out: % Inhibition of Control Values
SETDB1 (h) = SETDB1 (h) (Homo sapiens, UniProt Q15047); assay: Epigenetic enzyme assay, Methyltransferases (MTs); type: biochemical; conditions: for inhibition at 10 µM: read-out: % Inhibition of Control Values
[1] = target: Rsk2(h) (substrate histone H3 full length) (Homo sapiens, UniProt P51812); assay: Epigenetic enzyme assay, Kinases; type: biochemical; conditions: read-out: % Inhibition of Control Values
Sequence of Rsk2(h) (substrate histone H3 full length) (P51812 whole entry): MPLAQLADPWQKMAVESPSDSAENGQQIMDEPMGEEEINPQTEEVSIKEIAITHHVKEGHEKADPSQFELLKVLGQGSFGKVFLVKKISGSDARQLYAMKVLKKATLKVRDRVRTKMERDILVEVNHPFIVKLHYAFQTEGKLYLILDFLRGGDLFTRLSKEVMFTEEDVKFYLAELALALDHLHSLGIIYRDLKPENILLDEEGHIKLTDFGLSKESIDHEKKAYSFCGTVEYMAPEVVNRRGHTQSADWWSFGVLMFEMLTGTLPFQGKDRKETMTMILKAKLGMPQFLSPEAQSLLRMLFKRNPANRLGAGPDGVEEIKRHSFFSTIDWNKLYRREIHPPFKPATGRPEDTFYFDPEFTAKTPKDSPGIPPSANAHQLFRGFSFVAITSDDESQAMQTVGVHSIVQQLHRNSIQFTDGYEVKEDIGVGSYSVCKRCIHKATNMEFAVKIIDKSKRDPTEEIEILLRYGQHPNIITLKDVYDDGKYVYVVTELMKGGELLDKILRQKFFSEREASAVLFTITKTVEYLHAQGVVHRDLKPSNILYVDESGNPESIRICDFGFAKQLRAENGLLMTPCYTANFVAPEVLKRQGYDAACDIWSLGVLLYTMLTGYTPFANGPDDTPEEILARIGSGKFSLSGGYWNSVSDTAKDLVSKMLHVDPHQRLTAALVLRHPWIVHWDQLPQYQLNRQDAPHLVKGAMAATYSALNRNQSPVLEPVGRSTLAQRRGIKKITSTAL

[2] = target: T5, Protein Tyrosine Phosphatase, PTPN1 (PTP1B) (Homo sapiens, UniProt P18031); assay: Protein Tyrosine Phosphatase, PTPN1 (PTP1B); type: biochemical; conditions: assay year 2015, read-out: % Control Response
T5 construct: host or cells: E. coli
T5 sequence (P18031 1-435): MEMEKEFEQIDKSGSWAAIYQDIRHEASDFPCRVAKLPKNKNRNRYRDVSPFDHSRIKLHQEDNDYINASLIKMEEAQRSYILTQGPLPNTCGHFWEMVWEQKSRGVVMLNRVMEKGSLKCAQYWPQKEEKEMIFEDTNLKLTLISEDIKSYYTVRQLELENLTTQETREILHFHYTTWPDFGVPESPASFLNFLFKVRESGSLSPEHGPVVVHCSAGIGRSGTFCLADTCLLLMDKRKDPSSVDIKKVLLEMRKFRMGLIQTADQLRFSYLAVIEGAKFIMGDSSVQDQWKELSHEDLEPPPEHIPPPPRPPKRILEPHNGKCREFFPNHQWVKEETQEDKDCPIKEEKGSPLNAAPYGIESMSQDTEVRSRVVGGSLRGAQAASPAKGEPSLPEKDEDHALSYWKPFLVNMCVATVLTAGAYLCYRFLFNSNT
Experimental: (§1) The in vitro pharmacological studies were conducted by Eurofins PanLab (Taiwan) using the parameters shown in Table 13 with respect to appropriate literature references.

[3] = system: Rat L6 skeletal muscle cells; assay: [3H]-2-Deoxy-D-glucose uptake; type: cell-based; conditions: 10 μM; assay year 2016
Experimental: as §1

CYP2C9 = target: T6, CYP2C9 (Homo sapiens, UniProt P11712); assay: Cytochrome P450 Inhibition (CYP panel); type: in vitro ADME; conditions: human liver microsomes, probe diclofenac; for inhibition at 10 µM: read-out: % Inhibition of Control Values
T6 construct: Human liver microsomes; from tissue; host or cells: human liver microsomes
T6 sequence (P11712 whole entry): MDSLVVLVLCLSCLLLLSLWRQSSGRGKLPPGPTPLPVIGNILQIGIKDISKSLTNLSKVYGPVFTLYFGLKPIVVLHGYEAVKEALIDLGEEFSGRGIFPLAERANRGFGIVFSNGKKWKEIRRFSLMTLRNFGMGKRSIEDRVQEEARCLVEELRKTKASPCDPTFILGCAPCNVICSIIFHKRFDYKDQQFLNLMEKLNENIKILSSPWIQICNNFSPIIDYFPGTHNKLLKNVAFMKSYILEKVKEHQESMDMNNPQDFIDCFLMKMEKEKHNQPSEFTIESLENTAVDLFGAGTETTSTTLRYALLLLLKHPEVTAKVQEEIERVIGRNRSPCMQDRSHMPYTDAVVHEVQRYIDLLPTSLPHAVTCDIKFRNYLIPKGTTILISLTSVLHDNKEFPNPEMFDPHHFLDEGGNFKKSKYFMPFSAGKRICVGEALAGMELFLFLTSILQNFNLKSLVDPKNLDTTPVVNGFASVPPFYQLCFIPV

T1 sequence (P83916 21-79 limits assumed): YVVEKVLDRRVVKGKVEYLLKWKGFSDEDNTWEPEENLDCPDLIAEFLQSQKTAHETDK

`CC(C)=CCC[C@H](CO)[C@@H]1CC[C@@H](C)c2c1cc(C)c(O)c2O` [Compound 1, 7,8,18-trihydroxyserrulat-14-ene] was tested, and the inhibition at 10 µM (CBX1 (h) chromodomain) was 15%, the “% Inhibition of Control Specific Binding” value (UHRF1 (108-286) (h); 10 μM) was “good inhibitory activity” and the inhibition at 10 µM (UHRF1 (108-286) (h); 10 μM) was 73%. For the same compound, the “inhibition of binding, 1st” value (UHRF1 (108-286) (h); 3.0E−05M) was 81.5, the “inhibition of binding, 2nd” value (UHRF1 (108-286) (h); 3.0E−05M) was 83.3 and the “inhibition of binding, Mean” value (UHRF1 (108-286) (h); 3.0E−05M) was 82.4. For the same compound, the “inhibition of binding, 1st” value (UHRF1 (108-286) (h); 3.0E−06M) was −1.8, the “inhibition of binding, 2nd” value (UHRF1 (108-286) (h); 3.0E−06M) was −0.1 and the “inhibition of binding, Mean” value (UHRF1 (108-286) (h); 3.0E−06M) was −0.9. For the same compound, the “inhibition of binding, 1st” value (UHRF1 (108-286) (h); 3.0E−07M) was −12.1, the “inhibition of binding, 2nd” value (UHRF1 (108-286) (h); 3.0E−07M) was −13.2 and the “inhibition of binding, Mean” value (UHRF1 (108-286) (h); 3.0E−07M) was −12.7. The “inhibition of binding, 1st” value (UHRF1 (108-286) (h); 3.0E−08M) was −13.3, the “inhibition of binding, 2nd” value (UHRF1 (108-286) (h); 3.0E−08M) was −12.6 and the “inhibition of binding, Mean” value (UHRF1 (108-286) (h); 3.0E−08M) was −12.9. The “inhibition of binding, 1st” value (UHRF1 (108-286) (h); 3.0E−09M) was −11.9, the “inhibition of binding, 2nd” value (UHRF1 (108-286) (h); 3.0E−09M) was −13.1 and the “inhibition of binding, Mean” value (UHRF1 (108-286) (h); 3.0E−09M) was −12.5. It also gave an IC50 (UHRF1 (108-286) (h); Table 9, inhibition/concentration-response curve) of 11 µM, an inhibition at 10 µM (HDAC11 (h)) of 27% and an inhibition at 10 µM (Sirtuin 7 (h)) of 7%. For the same compound, the inhibition at 10 µM (MLL complex (h)) was 2%, the inhibition at 10 µM (SETDB1 (h)) was 53% and the inhibition at 10 µM [1] was 5%. The remaining activity at 10 µM [2] was 20%, the “% Control Response, agonist (increase in 2-DG uptake relative to insulin response)” value [3] was −61% and the inhibition at 1 µM (CYP2C9) was 5%. For the same compound, the inhibition at 10 µM (CYP2C9) was 77%.

For `CC(C)=CCC[C@@H]1C(O)Oc2c(C)cc(O)c3c2[C@H]1CC[C@H]3C` (stereo partly shown) [Compound 2, 5,18-epoxyserrulat-14-en-8,18-diol], the inhibition at 10 µM (CBX1 (h) chromodomain) was 0%, the inhibition at 10 µM (UHRF1 (108-286) (h); 10 μM) was 34% and the inhibition at 10 µM (HDAC11 (h)) was -47%. The inhibition at 10 µM (Sirtuin 7 (h)) was -2%, the inhibition at 10 µM (MLL complex (h)) was 22% and the inhibition at 10 µM (SETDB1 (h)) was 43%. The inhibition at 10 µM [1] was 7%, the remaining activity at 10 µM [2] was 3% and the inhibition at 1 µM (CYP2C9) was 20%. It also gave an inhibition at 10 µM (CYP2C9) of 72%.

For `CC(C)=CCC[C@@H]1COc2c(C)cc(O)c3c2[C@H]1CC[C@H]3C` [Compound 3, 5,18-epoxy-8-hydroxyserrulat-14-ene], the inhibition at 10 µM (CBX1 (h) chromodomain) was -1%, the inhibition at 10 µM (UHRF1 (108-286) (h); 10 μM) was 29% and the inhibition at 10 µM (HDAC11 (h)) was -130%. The inhibition at 10 µM (Sirtuin 7 (h)) was -8%, the inhibition at 10 µM (MLL complex (h)) was 11% and the inhibition at 10 µM (SETDB1 (h)) was 52%. The inhibition at 10 µM [1] was -4%, the remaining activity at 10 µM [2] was -3% and the “% Control Response, agonist (increase in 2-DG uptake relative to insulin response)” value [3] was −52%.

`CC(C)=CCC[C@H](C)[C@@H]1CC[C@@H](C)c2c1cc(C)c(O)c2O` [Compound 4, 7,8-dihydroxyserrulat-14-ene] was tested, and the “% Control Response, agonist (increase in 2-DG uptake relative to insulin response)” value [3] was −45%, the inhibition at 1 µM (CYP2C9) was 31% and the inhibition at 10 µM (CYP2C9) was 91%.

With `Nc1ncnc2c1ncn2[C@@H]1O[C@H](CSCC[C@H](N)C(=O)O)[C@@H](O)[C@H]1O` [SAH] the IC50 (MLL complex (h); read-out: Reference IC50) was 970 nM and the IC50 (SETDB1 (h); read-out: Reference IC50) was 1800 nM.
